{"source": "patent US20210308196A1", "about": "“COMPOSITIONS AND METHODS TO PROMOTE HOST DEFENSE AND STIMULATE, EXPAND, AND/OR RESET T CELL REPERTOIRES” (EVOLVE BIOSYSTEMS, INC., priority 2018, published 2021)", "format_in_all_cases": "in vivo, human", "key": {"[1]": {"test_system": "infant gut microbiome", "assay": "Infant fecal microbiome analysis (16S rDNA sequencing, B. infantis qPCR)", "procedure": "Infant fecal samples were collected throughout the 60-day trial. Mothers collected their own fecal and breastmilk samples as well as fecal samples from their infants. They filled out weekly, biweekly and monthly health and diet questionnaires, as well as daily logs about their infant feeding and gastrointestinal tolerability (GI). Safety and tolerability were determined from maternal reports of infants' feeding, stooling frequency, and consistency (using a modified Amsterdam infant stool scale—watery, soft, formed, hard; Bekkali et al. 2009), as well as GI symptoms and health outcomes. Individual fecal samples were subjected to full microbiome analysis using Illumina sequencing based on 16S rDNA and qPCR with primers designed specifically for B. longum subsp. infantis strain.\nEvaluation of EVC001 colonization. As previously described in Frese et al. (2017) (mSphere 2(6): e00501-00517) colonization is measured at baseline and post-feeding by quantitative PCR using specific primers for B. infantis. Colonization is considered when B. infantis abundance is greater than 10^5, but more preferably greater than 10^7 or 10^8 CFU/ug DNA. Colonization may also be described as a significant expansion of the total relative contribution of Bifidobacteriaceae to the infant gut microbiome.\nBacterial DNA Methods. The relative abundance of the stool bacteria at the phylum, class, order, family, and genus level was characterized by performing a sequence analysis of the V4 segment of the 16S rRNA gene using QIIME v1.9.1."}, "[2]": {"test_system": "IL-1β, IL-2, IL-5, IL-6, IL-8, IL-10, IL-22, IFNγ, TNFα", "assay": "Fecal cytokines, multiplexed immunoassay (MSD U-PLEX Inflammation Panel 1)", "settings": "for IFNγ Median (SD) / IL-1β Median (SD) / IL-2 Median (SD) / IL-5 Median (SD) / IL-6 Median (SD) / IL-8 Median (SD) / IL-10 Median (SD) / IL-22 Median (SD) / TNFα Median (SD): infant feces", "procedure": "Multiplexed Immunoassays. Interleukin (IL)-1β, IL-2, IL-5, IL-6, IL-8, IL-10, IL-22, interferon (IFN) γ, and tumor necrosis factor (TNF) α were quantified from 80 mg of stool diluted 1:10 in Meso Scale Discovery (MSD; Rockville, Md.) diluent using the U-PLEX Inflammation Panel 1 (human) Kit according to the manufacturer's instructions. Standards and samples were measured in duplicate and blank values were subtracted from all readings. The plate was then read on a Sector Imager 2400 MSD Discovery Workbench analysis software. Statistical Analysis. Demographic differences between Control and EVC001-fed infants was analyzed using Fisher's Exact test for categorical data and Wilcoxon rank sum (Mann-Whitney U) test for continuous data. […] The relationship between fecal calprotectin concentration and % Bifidobacteriaceae was quantified using Spearman's Rho correlation, and the differences in calprotectin concentration between high (>25%) and low (<25%) Bifidobacteriaceae abundance was assessed using the Wilcoxon rank sum test. One subject with abnormally high fecal calprotectin concentration (greater than 3 standard deviations above the mean of both treatment and control data) was considered an extreme outlier and removed from the aforementioned calprotectin analyses. Wilcoxon rank sum tests were performed to assess relative abundance for each bacterial taxa and cytokine concentration differences. For radar plots, medians were adjusted to log scale, then normalized within each cytokine group from 0 to 1. Differences overtime within each cytokine group were evaluated using the Wilcoxon rank sum test. P-values were adjusted using the Bonferroni-Holms method and considered statistically significant if P<0.05. Statistical analyses were applied to determine the significance of global cytokine profile as determined by computing a Bray-Curtis distance metric translated into a principal coordinate analysis and visualized with EMPeror. Global cytokine profile differences by group status were then determined using a permutational multivariate analysis of variance (PERMANOVA), and significant P-values were determined using 999 Monte Carlo permutations. To assess the relationship between the global cytokine profile and the microbiome, we used a Procrustes analysis. The taxonomic operational taxonomic unit (OTU) table at the family level was computed using QIIME, and the cytokine table was used to generate a distance matrix for each, using a weighted UniFrac for 16S and Bray-Curtis for the cytokine. We performed a principal coordinate analysis separately on the two matrices and used a Procrustes analysis as implemented in QIIME to rotate, translate, and scale the matrices. The resulting transformed matrices were plotted using EMPeror. P-values for the Procrustes analysis were generated using Monte Carlo simulations (n=999). Raw correlation statistics were assigned the likelihood of these associations to be true positive associations by computing P-values via a Fisher's Z transform to normalize the distribution of the correlation scores."}, "[3]": {"test_system": "zonulin", "assay": "Fecal zonulin ELISA", "settings": "treatment group", "source_text": "Fecal zonulin concentrations: Zonulin has been described as the main physiological modulator of intercellular tight junction, and increased levels are indicative of increased gut permeability."}, "[4]": {"settings": "infant feces, Day 6 (Baseline), before supplementation starts on Day 7"}, "[5]": {"settings": "Day 40 compared to Day 6, within EVC001-fed infants"}, "[6]": {"settings": "Day 60 compared to Day 6, within EVC001-fed infants"}, "[7]": {"settings": "Day 6 (Baseline), before supplementation starts on Day 7"}}}
{"substance": "Bifidobacterium longum subsp. infantis EVC001 [B. infantis EVC001]", "values": [{"measurement": "Levels of proteobacteria and enterococci", "setting": "[1]; colonized infants versus unsupplemented", "result": "much lower levels"}, {"measurement": "B. infantis colonization level of infant gut", "setting": "[1]; continued after supplementation ended (Day 28) while breast milk consumed", "result": "higher than 10^10 cfu/g feces"}, {"measurement": "Bacteroidaceae % Relative Abundance", "setting": "[1]; [4]", "result": 0.1040, "unit": "%"}, {"measurement": "Bifidobacteriaceae % Relative Abundance", "setting": "[1]; [4]", "result": 0.1472, "unit": "%"}, {"measurement": "Clostridiaceae % Relative Abundance", "setting": "[1]; [4]", "result": 0.0874, "unit": "%"}, {"measurement": "Enterobacteriaceae % Relative Abundance", "setting": "[1]; [4]", "result": 0.2743, "unit": "%"}, {"measurement": "Enterococcaceae % Relative Abundance", "setting": "[1]; [4]", "result": 0.0539, "unit": "%"}, {"measurement": "Lachnospiraceae % Relative Abundance", "setting": "[1]; [4]", "result": 0.0197, "unit": "%"}, {"measurement": "Other families % Relative Abundance", "setting": "[1]; [4]", "result": 0.1357, "unit": "%"}, {"measurement": "Staphylococcaceae % Relative Abundance", "setting": "[1]; [4]", "result": 0.0543, "unit": "%"}, {"measurement": "Streptococcaceae % Relative Abundance", "setting": "[1]; [4]", "result": 0.1169, "unit": "%"}, {"measurement": "Veillonellaceae % Relative Abundance", "setting": "[1]; [4]", "result": 0.0065, "unit": "%"}, {"measurement": "Bifidobacteriaceae % Relative Abundance", "setting": "[1]; infant feces, Day 40", "result": "significantly higher"}, {"measurement": "Enterococcaceae % Relative Abundance", "setting": "[1]; infant feces, Day 40", "result": 0.0045, "unit": "%"}, {"measurement": "Lachnospiraceae % Relative Abundance", "setting": "[1]; infant feces, Day 40", "result": 0.0072, "unit": "%"}, {"measurement": "Other families % Relative Abundance", "setting": "[1]; infant feces, Day 40", "result": 0.0215, "unit": "%"}, {"measurement": "Staphylococcaceae % Relative Abundance", "setting": "[1]; infant feces, Day 40", "result": 0.0036, "unit": "%"}, {"measurement": "Streptococcaceae % Relative Abundance", "setting": "[1]; infant feces, Day 40", "result": 0.0291, "unit": "%"}, {"measurement": "Veillonellaceae % Relative Abundance", "setting": "[1]; infant feces, Day 40", "result": 0.0077, "unit": "%"}, {"measurement": "Bifidobacteriaceae % Relative Abundance", "setting": "[1]; infant feces, Day 40, listed as EVC001", "result": 0.8712, "unit": "%"}, {"measurement": "Enterobacteriaceae % Relative Abundance", "setting": "[1]; infant feces, Day 60", "result": 0.0427, "unit": "%"}, {"measurement": "Enterococcaceae % Relative Abundance", "setting": "[1]; infant feces, Day 60", "result": 0.0082, "unit": "%"}, {"measurement": "Lachnospiraceae % Relative Abundance", "setting": "[1]; infant feces, Day 60", "result": 0.0081, "unit": "%"}, {"measurement": "Other families % Relative Abundance", "setting": "[1]; infant feces, Day 60", "result": 0.02443, "unit": "%"}, {"measurement": "Staphylococcaceae % Relative Abundance", "setting": "[1]; infant feces, Day 60", "result": 0.0039, "unit": "%"}, {"measurement": "Streptococcaceae % Relative Abundance", "setting": "[1]; infant feces, Day 60", "result": 0.0277, "unit": "%"}, {"measurement": "Veillonellaceae % Relative Abundance", "setting": "[1]; infant feces, Day 60", "result": 0.0076, "unit": "%"}, {"measurement": "Gut microbiome share of B. longum subsp. infantis", "setting": "[1]; supplemented infants, on average, regardless of birthing mode", "result": "greater than 70%"}, {"measurement": "Fecal IFNγ level change over time", "setting": "[2]; [5]", "result": "significantly increased"}, {"measurement": "Fecal IL-2 level change over time", "setting": "[2]; [5]", "result": "significantly lower"}, {"measurement": "Fecal IL-5 level change over time", "setting": "[2]; [5]", "result": "significantly lower"}, {"measurement": "Fecal IL-6 level change over time", "setting": "[2]; [5]", "result": "significantly lower"}, {"measurement": "Fecal IL-10 level change over time", "setting": "[2]; [5]", "result": "significantly lower"}, {"measurement": "Fecal IL-22 level change over time", "setting": "[2]; [5]", "result": "significantly lower"}, {"measurement": "Fecal TNFα level change over time", "setting": "[2]; [5]", "result": "significantly lower"}, {"measurement": "Fecal IFNγ level change over time", "setting": "[2]; [6]", "result": "significantly higher"}, {"measurement": "Fecal IL-2 level change over time", "setting": "[2]; [6]", "result": "significantly lower"}, {"measurement": "Fecal IL-5 level change over time", "setting": "[2]; [6]", "result": "significantly lower"}, {"measurement": "Fecal IL-6 level change over time", "setting": "[2]; [6]", "result": "significantly lower"}, {"measurement": "Fecal IL-10 level change over time", "setting": "[2]; [6]", "result": "significantly lower"}, {"measurement": "Fecal TNFα level change over time", "setting": "[2]; [6]", "result": "significantly lower"}, {"measurement": "Fecal IL-22 level change over time", "setting": "[2]; Day 60 compared to Day 40, within EVC001-fed infants", "result": "significantly higher"}, {"measurement": "Fecal cytokine levels overall", "setting": "[2]; first 60 days postnatal, versus Control infants", "result": "significantly lower"}, {"measurement": "IFNγ Median (SD)", "setting": "[2]; [7]", "result": 0.29, "unit": "pg/mg"}, {"measurement": "IL-1β Median (SD)", "setting": "[2]; [7]", "result": 38.65, "unit": "pg/mg"}, {"measurement": "IL-2 Median (SD)", "setting": "[2]; [7]", "result": 48.13, "unit": "pg/mg"}, {"measurement": "IL-5 Median (SD)", "setting": "[2]; [7]", "result": 16.53, "unit": "pg/mg"}, {"measurement": "IL-6 Median (SD)", "setting": "[2]; [7]", "result": 9.29, "unit": "pg/mg"}, {"measurement": "IL-8 Median (SD)", "setting": "[2]; [7]", "result": 48.35, "unit": "pg/mg"}, {"measurement": "IL-10 Median (SD)", "setting": "[2]; [7]", "result": 8.76, "unit": "pg/mg"}, {"measurement": "IL-22 Median (SD)", "setting": "[2]; [7]", "result": 4.22, "unit": "pg/mg"}, {"measurement": "TNFα Median (SD)", "setting": "[2]; [7]", "result": 26.71, "unit": "pg/mg"}, {"measurement": "IL-2 Median (SD)", "setting": "[2]; Day 40", "result": 3.36, "unit": "pg/mg"}, {"measurement": "IL-5 Median (SD)", "setting": "[2]; Day 40", "result": 1.48, "unit": "pg/mg"}, {"measurement": "IL-6 Median (SD)", "setting": "[2]; Day 40", "result": 0.48, "unit": "pg/mg"}, {"measurement": "IL-10 Median (SD)", "setting": "[2]; Day 40", "result": 0.55, "unit": "pg/mg"}, {"measurement": "TNFα Median (SD)", "setting": "[2]; Day 40", "result": 2.7, "unit": "pg/mg"}, {"measurement": "IFNγ Median (SD)", "setting": "[2]; Day 60", "result": 26.74, "unit": "pg/mg"}, {"measurement": "IL-1β Median (SD)", "setting": "[2]; Day 60", "result": 13.22, "unit": "pg/mg"}, {"measurement": "IL-2 Median (SD)", "setting": "[2]; Day 60", "result": 3.16, "unit": "pg/mg"}, {"measurement": "IL-5 Median (SD)", "setting": "[2]; Day 60", "result": 1.85, "unit": "pg/mg"}, {"measurement": "IL-6 Median (SD)", "setting": "[2]; Day 60", "result": 0.71, "unit": "pg/mg"}, {"measurement": "IL-8 Median (SD)", "setting": "[2]; Day 60", "result": 70.13, "unit": "pg/mg"}, {"measurement": "IL-10 Median (SD)", "setting": "[2]; Day 60", "result": 0.46, "unit": "pg/mg"}, {"measurement": "IL-22 Median (SD)", "setting": "[2]; Day 60", "result": 3.54, "unit": "pg/mg"}, {"measurement": "TNFα Median (SD)", "setting": "[2]; Day 60", "result": 3.97, "unit": "pg/mg"}, {"measurement": "Fecal zonulin concentration", "setting": "[3]", "result": "significantly reduced"}]}
